Source: publication PMC11412489, “Coumarin derivatives as new anti-biofilm agents against Staphylococcus aureus” (PLOS ONE, 2024)
Like-named read-outs stand apart in the source and are kept apart here.

Key:
Format in all cases: cell-based, Staphylococcus aureus
S. aureus = assay: Antibacterial activity (bacterial growth inhibition); conditions: at 100 μg/mL; for inhibition at 100 µg/mL: Staphylococcus aureus, read-out: Antibacterial Activity (% Inhibition ± SEM)
[1] = system: biofilm of S. aureus ATCC 6538; assay: 96-well plate crystal violet assay for biofilm inhibition; conditions: for inhibition at 3.125 µg/mL / inhibition at 6.25 µg/mL / inhibition at 12.5 µg/mL / inhibition at 25 µg/mL / inhibition at 50 µg/mL / inhibition at 100 µg/mL: Staphylococcus aureus, ATCC6538
Method: The quantitative determination of biofilm inhibition was carried out by the crystal violet assay on a sterile 96-well plate with slight modifications. The glycerol stock of S. aureus was revived overnight at 37°C at 80 rpm. The overnight culture was then diluted 100 folds in fresh BHI broth, supplemented with 0.25% glucose. The cell density was adjusted to 1×10^7 and 195μL of the cell suspension was added in 96-well plate. […] Following that, the plate was washed with sterile distilled water in order to decant the non-adherent cells, and media. The plate was then dried at 60°C for 1 hour, and 200 μL of 0.1% (w/v) crystal violet was added to stain biofilm for 20 minutes. The plate was washed again, air dried, and dispensed 30% (v/v) acetic acid in each well to dissolve the biofilm. The inhibition of biofilm formation was analyzed by measuring the absorbance at 595 nm using the microplate reader (Multiskan Sky, Thermo Scientific, USA). The percent inhibition of biofilm formation was calculated via the following formula: 100−ƛTreated−ƛBlank/ƛControl−ƛBlank×100 Whereƛ=absorbance

S. aureus biofilm = assay: Atomic force microscopy analysis of biofilm disruption; conditions: compared to control S. aureus cells, 24 hours
Method: The size and structure of disrupted biofilm was analyzed. Briefly, a pure single colony of S. aureus was inoculated in BHI broth and grown for 18–24 hours at 37°C. Following incubation, the cells were diluted in BHI broth, and density was adjusted to 1×10^7 before loading on a sterile silicon chip placed in 24-well plate, then silicon chips were treated with active compounds. The plate was then sealed, and placed in an incubator for 24 hours at 37°C. After incubation, the treated silicon chips were washed with autoclaved distilled water thrice, air dried, and the samples were analyzed by atomic force microscope (Agilent Technologies, USA).

[2] = system: biofilm cells of the S. aureus strain (ATCC 6538); assay: Biofilm analysis by fluorescence microscopy (SYTO-9/PI); conditions: SYTO-9/PI staining, S. aureus ATCC 6538, 24 hours
Method: Briefly, 1×10^7 cells were loaded in 96-well plate, and treated with active compounds. Plate was sealed, and incubated for 24 hours at 37°C. Following incubation, plate was washed with sterile distilled water, and cells were stained with […] SYTO-9 and 5 μM PI, for 30 minutes in dark at room temperature. After incubation, the wells were washed again, and air dried. Images were taken, and then visualized by Nikon Eclipse TE2000, USA [23]. Propidium Iodide (PI) staining indicates membrane integrity, as it can only pass through compromised membranes of non-viable cells, giving red fluorescence. On the contrary, Syto-9 can pass through all cells despite of their membrane integrity, and binds to DNA/RNA by emitting green fluorescence.

[3] = S. aureus ATCC 6538, replicate 1, read-out: % Inhibition 1
[4] = S. aureus ATCC 6538, replicate 2, read-out: % Inhibition 2
[5] = S. aureus ATCC 6538, replicate 3, read-out: % Inhibition 3
[6] = S. aureus ATCC 6538, read-out: Mean % Inhibition
[7] = 100 µg/mL, S. aureus ATCC 6538, replicate 1, read-out: % Inhibition 1
[8] = 100 µg/mL, S. aureus ATCC 6538, replicate 2, read-out: % Inhibition 2
[9] = 100 µg/mL, S. aureus ATCC 6538, replicate 3, read-out: % Inhibition 3
[10] = 100 µg/mL, S. aureus ATCC 6538, read-out: Mean % Inhibition
[11] = at 100 μg/mL, biofilm of S. aureus, 24 hours, read-out: Antibiofilm Activity (% Inhibition ± SEM)
[12] = at 100 μg/mL, biofilm of S. aureus, 24 hours

| SMILES | inhibition at 100 µg/mL (S. aureus) | Antibacterial Activity (% Inhibition ± SEM) (S. aureus) | inhibition at 3.125 µg/mL [1, 3] | inhibition at 3.125 µg/mL [1, 4] | inhibition at 3.125 µg/mL [1, 5] | inhibition at 3.125 µg/mL [1, 6] | inhibition at 6.25 µg/mL [1, 3] | inhibition at 6.25 µg/mL [1, 4] | inhibition at 6.25 µg/mL [1, 5] | inhibition at 6.25 µg/mL [1, 6] | inhibition at 12.5 µg/mL [1, 3] | inhibition at 12.5 µg/mL [1, 4] | inhibition at 12.5 µg/mL [1, 5] | inhibition at 12.5 µg/mL [1, 6] | inhibition at 25 µg/mL [1, 3] | inhibition at 25 µg/mL [1, 4] | inhibition at 25 µg/mL [1, 5] | inhibition at 25 µg/mL [1, 6] | inhibition at 50 µg/mL [1, 3] | inhibition at 50 µg/mL [1, 4] | other results |
| --- | --- | --- | --- | --- | --- | --- | --- | --- | --- | --- | --- | --- | --- | --- | --- | --- | --- | --- | --- | --- | --- |
| C/C(=N\Nc1nc(-c2ccc(Br)cc2)cs1)c1cc2ccccc2oc1=O [Compound 10, (E)-3-(1-(2-(4-(4-Bromophenyl)thiazol-2-yl)hydrazono)ethyl)-2H-chromen-2-one] | 18 ± 3.73% | low antibacterial effect | 1.98% | 1.44% | 1.54% | 1.65% | 5.34% | 4.99% | 5.53% | 5.29% | 7.56% | 7.29% | 7.21% | 7.35% | 2.34% | 2.21% | 2.09% | 2.21% | 39.5% | 39.8% | inhibition at 50 µg/mL [1, 5]: 39.8%; inhibition at 50 µg/mL [1, 6]: 39.7%; inhibition at 100 µg/mL [1, 7]: 69.4%; inhibition at 100 µg/mL [1, 8]: 69.5%; inhibition at 100 µg/mL [1, 9]: 68.9%; inhibition at 100 µg/mL [1, 10]: 69.3%; inhibition at 100 µg/mL [1, 11]: 69 ± 9.34%; Antibiofilm Activity (% Inhibition ± SEM) [1, 12]: high potential to inhibit the biofilms; Biofilm disruption seen by AFM (S. aureus biofilm): Disrupted biofilm surfaces; Biofilm disruption seen by fluorescence microscopy [2]: Disruption on the surface of biofilm |
| Cc1ccc2oc(=O)c(/C=N/Nc3nc(-c4ccc(C#N)cc4)cs3)c(Cl)c2c1 [Compound 3, (E)-4-(2-(2-((4-Chloro-6-methyl-2-oxo-2H-chromen-3-yl)methylene)hydrazinyl)thiazol-4-yl)benzonitrile] | 27 ± 6.41% | low antibacterial effect | 12.7% | 11.7% | 13.9% | 12.8% | 22.7% | 21.1% | 22.5% | 22.1% | 26.9% | 29.2% | 27.4% | 27.8% | 55.9% | 57.8% | 56.6% | 56.8% | 74% | 76% | inhibition at 50 µg/mL [1, 5]: 77%; inhibition at 50 µg/mL [1, 6]: 75.6%; inhibition at 100 µg/mL [1, 7]: 93.2%; inhibition at 100 µg/mL [1, 8]: 90.2%; inhibition at 100 µg/mL [1, 9]: 93.1%; inhibition at 100 µg/mL [1, 10]: 92.2%; inhibition at 100 µg/mL [1, 11]: 91 ± 6.31%; Antibiofilm Activity (% Inhibition ± SEM) [1, 12]: high potential to inhibit the biofilms; Biofilm disruption seen by AFM (S. aureus biofilm): disrupt and degrade biofilm to varying degrees; Biofilm disruption seen by fluorescence microscopy [2]: mild to extensive biofilm disruption and degradation |
